US10393748B2, “Method for predicting efficacy of c-Met inhibitor” (Samsung Electronics Co., Ltd., priority 2014, dated 2019)

Key:
Type in all cases: cell-based, human
[1] = tested on: EBC-1; experiment: Cell proliferation, Cell-Titer Glo (CTG) assay, EBC-1; conditions: inhibitor concentration of 10 nM or more, 72 hours
Description: (§1) The 4 cell lines were seeded on a 96 well plate at the same amount (1×10^4 cells/well) and cultured for 24 hours (media: RPMI (Gibco, Invitrogen), culture conditions: 37° C., 5% CO2). The cultured cells were treated with representative c-Met inhibitor, crizotinib (Selleck chemical) and PHA665752((R,Z)-5-(2,6-dichlorobenzylsulfonyl)-3-((3,5-dimethyl-4-(2-(pyrrolidin-1-ylmethyl)pyrrolidine-1-carbonyl)-1H-pyrrol-2-yl)methylene)indolin-2-one), respectively. For comparison, human control IgG (chrompure human IgG (009-000-003, JACKSON IMMUNORESEARCH LABS INC.)) as a control and anti-c-Met antibody L3-1Y/IgG2 (Reference Example) were used respectively. Each of the inhibitors (or antibody) was treated at 10-fold serial diluted concentrations from 1000 nM to 0.01 nM. 72 hours after the treatment, the level of IL-8 in cell culture of each treatment group was assayed by Cytometric Bead Array (CBA) method using BD Cytometric Bead Array kit (see Example 1.1.2). In addition, in order to verify the anticancer efficacy of the c-Met inhibitors, the cell proliferation (%) was measured at 72 hours after c-Met inhibitor treatment through Cell-Titer Glo (CTG) assay.

[2] = tested on: HT29; experiment: Cell proliferation, Cell-Titer Glo (CTG) assay, HT29; conditions: 0.01 to 1000 nM, 72 hours
Description: as §1

[3] = tested on: Lovo; experiment: Cell proliferation, Cell-Titer Glo (CTG) assay, Lovo; conditions: 0.01 to 1000 nM, 72 hours
Description: as §1

[4] = tested on: Hs746T; experiment: Cell proliferation, Cell-Titer Glo (CTG) assay, Hs746T; conditions: inhibitor concentration of 10 nM or more, 72 hours
Description: as §1

Row | SMILES | cell proliferation (%) [1] | cell proliferation (%) [2] | cell proliferation (%) [3] | cell proliferation (%) [4]
1 | C[C@@H](Oc1cc(-c2cnn(C3CCNCC3)c2)cnc1N)c1c(Cl)ccc(F)c1Cl [crizotinib, 3-((R)-1-(2,6-dichloro-3-fluorophenyl)ethoxy)-5-(1-(piperidin-4-yl)-1H-pyrazol-4-yl)pyridin-2-amine] | significantly inhibited | no significant decrease | no significant decrease | significantly inhibited
2 | Cc1[nH]c(/C=C2\C(=O)Nc3ccc(S(=O)(=O)Cc4c(Cl)cccc4Cl)cc32)c(C)c1C(=O)N1CCC[C@@H]1CN1CCCC1 [PHA665752, (R,Z)-5-(2,6-dichlorobenzylsulfonyl)-3-((3,5-dimethyl-4-(2-(pyrrolidin-1-ylmethyl)pyrrolidine-1-carbonyl)-1H-pyrrol-2-yl)methylene)indolin-2-one] | significantly inhibited | no significant decrease | no significant decrease | significantly inhibited
